Among the data in US6355644B1, “Benzylpiperazinyl-indolinylethanones” (Neurogen Corporation, priority 1999, dated 2002) are Ki values, retold here.

The target in one assay is dopamine D2 receptor (Chlorocebus aethiops, UniProt P52702). Kind of assay: D2 receptor binding assay (3H-YM 09151-2 displacement). As to conditions: CHO cells recombinantly expressing primate D2; 0.1 nM 3H-YM 09151-2; 25° C. The procedure: (§1) Determination of D2 and D4 Receptor Binding Activity
(§2) The following assay is used for determining the binding affinity of compounds to dopamine D4 and D2 receptors.
(§3) Pellets of Chinese hamster ovary (CHO) cells containing recombinantly expressing primate D2, human D4 or […] receptors are used for the assays. The sample is homogenized in 100 volumes (w/vol) of 0.05 M Tris HCl buffer containing 120 mM NaCl, 5 mM MgCl2 and 1 mM EDTA at 4° C. and pH 7.4. The sample is then centrifuged at 30,000×g, resuspended and rehomogenized. The sample is then recentrifuged at 30,000×g, the supernatant is removed and the final tissue sample is frozen until it is needed. The tissue is resuspended 1:20 (wt/vol) in 0.05 M Tris HCl buffer containing 120 mM NaCl.

The next assay addresses T1, dopamine D4 receptor (Homo sapiens, UniProt P21917).
T1 sequence (P21917 1-419): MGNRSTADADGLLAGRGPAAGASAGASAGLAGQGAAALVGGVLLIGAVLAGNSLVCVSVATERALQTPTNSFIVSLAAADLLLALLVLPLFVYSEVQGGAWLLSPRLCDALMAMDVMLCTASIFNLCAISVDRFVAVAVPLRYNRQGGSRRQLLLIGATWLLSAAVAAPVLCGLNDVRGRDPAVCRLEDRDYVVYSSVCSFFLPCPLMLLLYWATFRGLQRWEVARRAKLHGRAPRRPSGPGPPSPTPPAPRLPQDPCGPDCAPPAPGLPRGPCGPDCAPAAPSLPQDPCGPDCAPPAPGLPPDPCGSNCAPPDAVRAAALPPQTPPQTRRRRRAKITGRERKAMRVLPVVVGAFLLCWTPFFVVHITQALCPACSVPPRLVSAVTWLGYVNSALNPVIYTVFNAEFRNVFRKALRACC
Kind of assay: D4 receptor binding assay (3H-YM 09151-2 displacement). As to conditions: CHO cells recombinantly expressing human D4; 0.1 nM 3H-YM 09151-2; 25° C. The procedure:
as §1, §2, §3

dopamine D2 receptor, sequence (P52702 whole entry): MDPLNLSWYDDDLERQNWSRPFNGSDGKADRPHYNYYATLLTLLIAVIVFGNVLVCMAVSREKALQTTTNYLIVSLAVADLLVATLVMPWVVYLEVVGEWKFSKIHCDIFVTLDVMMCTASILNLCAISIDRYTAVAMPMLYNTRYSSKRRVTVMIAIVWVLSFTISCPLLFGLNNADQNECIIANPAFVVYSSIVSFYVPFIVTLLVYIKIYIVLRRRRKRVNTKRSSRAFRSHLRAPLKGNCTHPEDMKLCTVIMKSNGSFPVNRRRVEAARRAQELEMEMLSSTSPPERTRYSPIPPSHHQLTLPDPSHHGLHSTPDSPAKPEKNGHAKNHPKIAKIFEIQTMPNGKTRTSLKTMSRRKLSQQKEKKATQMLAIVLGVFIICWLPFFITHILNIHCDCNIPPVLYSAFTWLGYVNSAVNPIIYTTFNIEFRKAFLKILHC

`Cc1ccc(CN2CCN(CC(=O)N3c4ccccc4[C@@H](C)[C@H]3C)CC2)cc1` [Compound 1c]: the figures for the inhibition constant (Ki) on dopamine D2 receptor and at dopamine D4 receptor were 185 nM and 2 nM, respectively. On to `O=C(CN1CCN(Cc2ccc(Cl)cc2)CC1)N1c2ccccc2C[C@H]1CF` [Compound 1m], for which the Ki at dopamine D2 receptor worked out at 1100 nM. As to `Cc1ccc(CN2CCN(CC(=O)N3c4ccccc4[C@H]4CCCC[C@H]43)CC2)cc1` (relative stereo) [Compound 1o, 1-[(4b,8a-cis-5,6,7,8,9,4b,8a-heptahydro-4aH-carbazol-9-yl)ethyl]-2-{4-[(4-methylphenyl)methyl]piperazinyl}ethan-1-one], the figures for the Ki at dopamine D2 receptor and on dopamine D4 receptor were 200 nM and 11 nM, respectively.

For `COc1ccc(Cl)cc1CN1CCN(CC(=O)N2c3ccccc3C(C)C2C)CC1` (centres unmarked) [Compound 1e], the Ki was 128 nM at dopamine D2 receptor and 22 nM at dopamine D4 receptor. The matching figures for `Cc1ccc(CN2CCN(CC(=O)N3CC(C)c4ccccc43)CC2)cc1` (centres unmarked) [Compound 1b]: 2640 nM and 93 nM. `O=C(CN1CCN(Cc2ccc(Cl)cc2)CC1)N1c2ccccc2CC1CO` (centres unmarked) [Compound 1j]: the Ki at dopamine D2 receptor was found to be 3210 nM. Consider `C=C[C@@H]1Cc2ccccc2N1C(=O)CN1CCN(Cc2ccc(Cl)cc2)CC1` [Compound 1l], for which the Ki on dopamine D4 receptor worked out at 5 nM. Same read-out and setting: as for `COC(=O)C1Cc2ccccc2N1C(=O)CN1CCN(Cc2ccc(Cl)cc2)CC1` (centres unmarked) [Compound 1g], the figure is 5 nM. `Cc1ccc(CN2CCN(CC(=O)N3c4ccccc4[C@H](C)[C@@H]3C)CC2)cc1` [Compound 1d]: the Ki at dopamine D2 receptor turned out to be 473 nM; on dopamine D4 receptor, 70 nM.

For orientation: Ki means a dissociation constant, usually derived from enzyme kinetics or from competition with a known ligand.
